± gives the standard deviation of the averaged measurements.
Assays:
Details in all cases: treatment time: 3 days
UT-SCC-73 [1] = assay: drug sensitivity score (DSS); higher = more sensitive; extreme values may be limits of the assay
Method in brief: (§1)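 HPV-negative HNSCC cell lines were plated at 500 cells/well in 384-well plates, either on plastic, on wells coated with Matrigel or Myogel (500 µg/mL), or embedded in Matrigel or Myogel plus rat collagen I. Each compound was tested at five 10-fold concentrations over 3 days. Viability was measured by CellTiter-Glo 2.0 luminescence, and IC50, maximal inhibition and drug sensitivity score came from percent-inhibition dose–response curves fitted in the FIMM pipeline after normalisation to vehicle (0.1% DMSO) and cell-killing control wells.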

UT-SCC-81 [2] = assay: as above
Method in brief: as §1

UT-SCC-42A [3] = assay: as above
Method in brief: as §1

UT-SCC-28 [4] = assay: as above
Method in brief: as §1

UT-SCC-42B [5] = assay: as above
Method in brief: as §1

UT-SCC-40 [6] = assay: as above
Method in brief: as §1

UT-SCC-44 [7] = assay: as above
Method in brief: as §1

UT-SCC-106A [8] = assay: as above
Method in brief: as §1

UT-SCC-8 [9] = assay: as above
Method in brief: as §1

UT-SCC-73 [10] = assay: maximal % inhibition of viability relative to DMSO; higher = stronger effect
Protocol: (§2)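 HNSCC cell lines (500 cells/well, 384-well) were cultured on plastic, on top of (2D) or embedded (3D) in Matrigel or human leiomyoma matrix Myogel (500 ug/mL; Myogel 3D mixed with rat collagen I). Cells were treated for 3 days with 5 ten-fold concentrations of each drug, and viability was read by CellTiter-Glo. Viability was normalised to DMSO and benzethonium chloride controls and fitted with the FIMM DSRT pipeline to give IC50 (nM), maximal % inhibition and DSS. Suffixes _1/_2/_3 are replicates. Only inhibition-mode (IC50) fits are kept.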

UT-SCC-81 [11] = assay: as above
Protocol: as §2

UT-SCC-42A [12] = assay: as above
Protocol: as §2

UT-SCC-28 [13] = assay: as above
Protocol: as §2

UT-SCC-42B [14] = assay: as above
Protocol: as §2

UT-SCC-40 [15] = assay: as above
Protocol: as §2

UT-SCC-44 [16] = assay: as above
Protocol: as §2

UT-SCC-106A [17] = assay: as above
Protocol: as §2

UT-SCC-8 [18] = assay: as above
Protocol: as §2

UT-SCC-14 = assay: as above
Protocol: as §2

UT-SCC-24B = assay: as above
Protocol: as §2

[19] = culture condition: embedded in Matrigel
[20] = culture condition: embedded in Myogel + collagen I
[21] = culture condition: on top of Matrigel
[22] = culture condition: on top of Myogel
[23] = culture condition: plastic 2D (no matrix)

COc1ccc(-c2cc3c(C)nc(N)nc3n([C@H]3CC[C@H](OCCO)CC3)c2=O)cn1
drug sensitivity score (UT-SCC-73 [1]; [19]): 16 ± 2.9 DSS
drug sensitivity score (UT-SCC-73 [1]; [20]): 12.1 ± 4.3 DSS
drug sensitivity score (UT-SCC-73 [1]; [21]): 13.9 ± 2.8 DSS
drug sensitivity score (UT-SCC-73 [1]; [22]): 12.7 ± 3 DSS
drug sensitivity score (UT-SCC-73 [1]; [23]): 12.6 ± 4.8 DSS
drug sensitivity score (UT-SCC-81 [2]; [19]): 23.6 ± 11 DSS
drug sensitivity score (UT-SCC-81 [2]; [20]): 14.2 ± 7.1 DSS
drug sensitivity score (UT-SCC-81 [2]; [21]): 15.9 ± 7.3 DSS
drug sensitivity score (UT-SCC-81 [2]; [22]): 13.6 ± 6.6 DSS
drug sensitivity score (UT-SCC-81 [2]; [23]): 14.4 ± 8.1 DSS
drug sensitivity score (UT-SCC-42A [3]; [19]): 5.87 ± 2.1 DSS
drug sensitivity score (UT-SCC-42A [3]; [20]): 5.73 ± 2.2 DSS
drug sensitivity score (UT-SCC-42A [3]; [21]): 7.63 ± 4.4 DSS
drug sensitivity score (UT-SCC-42A [3]; [22]): 6.6 ± 2.3 DSS
drug sensitivity score (UT-SCC-42A [3]; [23]): 7.97 ± 3.2 DSS
drug sensitivity score (UT-SCC-28 [4]; [19]): 10.5 ± 5.4 DSS
drug sensitivity score (UT-SCC-28 [4]; [20]): 6.7 ± 5 DSS
drug sensitivity score (UT-SCC-28 [4]; [21]): 13.8 ± 2.3 DSS
drug sensitivity score (UT-SCC-28 [4]; [23]): 11.5 ± 1.7 DSS
drug sensitivity score (UT-SCC-42B [5]; [19]): 10.2 ± 4.3 DSS
drug sensitivity score (UT-SCC-42B [5]; [21]): 1.8 ± 1.7 DSS
drug sensitivity score (UT-SCC-42B [5]; [22]): 1 ± 0.87 DSS
drug sensitivity score (UT-SCC-42B [5]; [23]): 0.967 ± 0.58 DSS
drug sensitivity score (UT-SCC-40 [6]; [19]): 13.4 ± 5.6 DSS
drug sensitivity score (UT-SCC-40 [6]; [20]): 11.5 ± 5.7 DSS
drug sensitivity score (UT-SCC-40 [6]; [21]): 12.1 ± 5.5 DSS
drug sensitivity score (UT-SCC-40 [6]; [22]): 8.77 ± 3.4 DSS
drug sensitivity score (UT-SCC-40 [6]; [23]): 8.4 ± 3.7 DSS
drug sensitivity score (UT-SCC-44 [7]; [19]): 10.5 ± 1.6 DSS
drug sensitivity score (UT-SCC-44 [7]; [20]): 4.07 ± 2.6 DSS
drug sensitivity score (UT-SCC-44 [7]; [21]): 8.07 ± 0.71 DSS
drug sensitivity score (UT-SCC-44 [7]; [22]): 4.63 ± 1.3 DSS
drug sensitivity score (UT-SCC-44 [7]; [23]): 5.7 ± 0.1 DSS
drug sensitivity score (UT-SCC-106A [8]; [19]): 17.5 ± 1.9 DSS
drug sensitivity score (UT-SCC-106A [8]; [20]): 9.13 ± 3.2 DSS
drug sensitivity score (UT-SCC-106A [8]; [21]): 15 ± 3.7 DSS
drug sensitivity score (UT-SCC-106A [8]; [22]): 8.9 ± 4.4 DSS
drug sensitivity score (UT-SCC-106A [8]; [23]): 15.3 ± 3 DSS
drug sensitivity score (UT-SCC-8 [9]; [19]): 11.4 ± 2.5 DSS
drug sensitivity score (UT-SCC-8 [9]; [20]): 4.97 ± 1.8 DSS
drug sensitivity score (UT-SCC-8 [9]; [21]): 10.9 ± 3.1 DSS
drug sensitivity score (UT-SCC-8 [9]; [22]): 10.9 ± 3.6 DSS
drug sensitivity score (UT-SCC-8 [9]; [23]): 10.4 ± 2.7 DSS
maximal % inhibition of viability (UT-SCC-73 [10]; [19]): 87.9 ± 5%
maximal % inhibition of viability (UT-SCC-73 [10]; [20]): 79.9 ± 16%
maximal % inhibition of viability (UT-SCC-73 [10]; [21]): 82.7 ± 12%
maximal % inhibition of viability (UT-SCC-73 [10]; [22]): 80 ± 14%
maximal % inhibition of viability (UT-SCC-73 [10]; [23]): 85.4 ± 6.6%
maximal % inhibition of viability (UT-SCC-81 [11]; [19]): 94 ± 4.5%
maximal % inhibition of viability (UT-SCC-81 [11]; [20]): 77.7 ± 13%
maximal % inhibition of viability (UT-SCC-81 [11]; [21]): 89.7 ± 4.7%
maximal % inhibition of viability (UT-SCC-81 [11]; [22]): 79.7 ± 8.8%
maximal % inhibition of viability (UT-SCC-81 [11]; [23]): 81.7 ± 7.7%
maximal % inhibition of viability (UT-SCC-42A [12]; [19]): 71.4 ± 9.7%
maximal % inhibition of viability (UT-SCC-42A [12]; [20]): 62.5 ± 12%
maximal % inhibition of viability (UT-SCC-42A [12]; [21]): 72.1 ± 7.3%
maximal % inhibition of viability (UT-SCC-42A [12]; [22]): 63.3 ± 12%
maximal % inhibition of viability (UT-SCC-42A [12]; [23]): 72.5 ± 6.5%
maximal % inhibition of viability (UT-SCC-28 [13]; [19]): 63.3 ± 13%
maximal % inhibition of viability (UT-SCC-28 [13]; [20]): 65.3 ± 16%
maximal % inhibition of viability (UT-SCC-28 [13]; [21]): 66 ± 3.7%
maximal % inhibition of viability (UT-SCC-28 [13]; [23]): 56.8 ± 3.1%
maximal % inhibition of viability (UT-SCC-42B [14]; [19]): 63.8 ± 11%
maximal % inhibition of viability (UT-SCC-42B [14]; [21]): 31.5 ± 7%
maximal % inhibition of viability (UT-SCC-42B [14]; [22]): 18.5 ± 13%
maximal % inhibition of viability (UT-SCC-42B [14]; [23]): 21.6 ± 12%
maximal % inhibition of viability (UT-SCC-40 [15]; [19]): 88.6 ± 7.3%
maximal % inhibition of viability (UT-SCC-40 [15]; [20]): 74 ± 12%
maximal % inhibition of viability (UT-SCC-40 [15]; [21]): 85.1 ± 7.9%
maximal % inhibition of viability (UT-SCC-40 [15]; [22]): 64.1 ± 17%
maximal % inhibition of viability (UT-SCC-40 [15]; [23]): 68 ± 15%
maximal % inhibition of viability (UT-SCC-44 [16]; [19]): 45.9 ± 6.3%
maximal % inhibition of viability (UT-SCC-44 [16]; [20]): 40.2 ± 19%
maximal % inhibition of viability (UT-SCC-44 [16]; [21]): 44.7 ± 10%
maximal % inhibition of viability (UT-SCC-44 [16]; [22]): 43 ± 11%
maximal % inhibition of viability (UT-SCC-44 [16]; [23]): 43.2 ± 15%
maximal % inhibition of viability (UT-SCC-106A [17]; [19]): 72.2 ± 2.7%
maximal % inhibition of viability (UT-SCC-106A [17]; [20]): 58.5 ± 8.7%
maximal % inhibition of viability (UT-SCC-106A [17]; [21]): 75.6 ± 2.8%
maximal % inhibition of viability (UT-SCC-106A [17]; [22]): 61.7 ± 13%
maximal % inhibition of viability (UT-SCC-106A [17]; [23]): 76.8 ± 4.8%
maximal % inhibition of viability (UT-SCC-8 [18]; [19]): 91.8 ± 9%
maximal % inhibition of viability (UT-SCC-8 [18]; [20]): 71.3 ± 21%
maximal % inhibition of viability (UT-SCC-8 [18]; [21]): 82.1 ± 19%
maximal % inhibition of viability (UT-SCC-8 [18]; [22]): 78.7 ± 14%
maximal % inhibition of viability (UT-SCC-8 [18]; [23]): 84 ± 14%
maximal % inhibition of viability (UT-SCC-14; [19]): 80.5 ± 3.8%
maximal % inhibition of viability (UT-SCC-14; [20]): 67.7 ± 5.3%
maximal % inhibition of viability (UT-SCC-14; [21]): 77.3 ± 1.4%
maximal % inhibition of viability (UT-SCC-14; [22]): 67.5 ± 3.8%
maximal % inhibition of viability (UT-SCC-14; [23]): 72.7 ± 3.6%
maximal % inhibition of viability (UT-SCC-24B; [19]): 99.6 ± 0.2%
maximal % inhibition of viability (UT-SCC-24B; [20]): 98.7 ± 0.36%
maximal % inhibition of viability (UT-SCC-24B; [21]): 99.57 ± 0.67%
maximal % inhibition of viability (UT-SCC-24B; [22]): 99 ± 1%
maximal % inhibition of viability (UT-SCC-24B; [23]): 99.73 ± 0.46%

From the supplement of paper PMC7017272
